Like-named read-outs stand apart in the source and are kept apart here.
Assays:
mouse 11β-HSD1 = target: T1, mouse 11β-HSD1 (Mus musculus, UniProt P50172); assay: Enzyme inhibitory activity, mouse 11β-HSD1 (lysate of stably expressing CHO-K1 cells, cortisol by competitive ELISA); format: biochemical; conditions: Table 2; mouse 11β-HSD1, cell lysate, 37° C. for 1 hour; read-out: m HSD1 in vitro assay (IC50 uM)
T1 construct: The obtained PCR products of about 0.9 kbp, 1.2 kbp, and 0.9 kbp were subcloned into an expression vector pcDNA3.1+/Zeo; expressed in transfected cells
How it was run: (§1)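 Sonicated lysates of stably transfected cells (diluted to 0.1–0.4 mg/mL before addition) reacted for 1 h at 37 °C in pH 7.4 Tris/sucrose/EGTA/EDTA/MgCl2 buffer with 100 nmol/L cortisone or cortisol and 400 μmol/L NADPH or NAD+, then were heat-stopped at 95 °C. Inhibition rate = 100 minus residual activity.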

human 11β-HSD1 = target: T2, human 11β-HSD1 (Homo sapiens, UniProt P28845); assay: Enzyme inhibitory activity, human 11β-HSD1 (lysate of stably expressing HEK293 cells, cortisol by competitive ELISA); format: biochemical; conditions: human 11β-HSD1, cell lysate, 37° C. for 1 hour, read-out: h HSD1 in vitro assay (IC50 uM)
T2 construct: The obtained PCR products of about 0.9 kbp, 1.2 kbp, and 0.9 kbp were subcloned into an expression vector pcDNA3.1+/Zeo; expressed in transfected cells
How it was run: as §1

T1 sequence (P50172 whole entry): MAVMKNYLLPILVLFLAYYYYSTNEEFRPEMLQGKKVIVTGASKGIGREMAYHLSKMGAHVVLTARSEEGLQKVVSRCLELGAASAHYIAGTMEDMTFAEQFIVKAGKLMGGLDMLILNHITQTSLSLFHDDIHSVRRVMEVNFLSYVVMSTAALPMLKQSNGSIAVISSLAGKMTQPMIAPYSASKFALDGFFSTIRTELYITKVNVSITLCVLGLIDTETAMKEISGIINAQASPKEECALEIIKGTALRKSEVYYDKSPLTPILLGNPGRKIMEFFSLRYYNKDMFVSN
T2 sequence (P28845 whole entry): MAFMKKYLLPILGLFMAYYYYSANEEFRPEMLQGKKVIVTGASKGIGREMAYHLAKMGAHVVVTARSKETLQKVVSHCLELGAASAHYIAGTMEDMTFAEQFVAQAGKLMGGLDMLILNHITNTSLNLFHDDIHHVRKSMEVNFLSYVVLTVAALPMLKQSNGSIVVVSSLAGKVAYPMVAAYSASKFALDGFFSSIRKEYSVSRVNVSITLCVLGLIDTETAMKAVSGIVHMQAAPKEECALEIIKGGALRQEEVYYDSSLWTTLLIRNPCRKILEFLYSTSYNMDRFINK

| Structure (SMILES) | IC50 (mouse 11β-HSD1) [µM] | IC50 (human 11β-HSD1; Table 1) [µM] | IC50 (human 11β-HSD1; Table 2) [µM] |
| --- | --- | --- | --- |
| Cc1ccccc1C(=O)N1N(C2C3CC4CC(C3)CC2C4)C(=O)C1(C)C (centres unmarked) [Example 116, 4,4-dimethyl-1-[(2-methylphenyl)carbonyl]-2-(adamantan-2-yl)-1,2-diazetidin-3-one] | 0.15 | 0.13 | – |
| CC1(C)C(=O)N(C2C3CC4CC(C3)CC2C4)N1C(=O)c1cc(Cl)cc(Cl)c1 (centres unmarked) [Example 117, 1-[(3,5-dichlorophenyl)carbonyl]-4,4-dimethyl-2-(adamantan-2-yl)-1,2-diazetidin-3-one] | 0.39 | – | 0.98 |
| Cc1ccc(F)cc1C(=O)N1N(C2C3CC4CC(C3)CC2C4)C(=O)C1(C)C (centres unmarked) [Example 125, 1-[(5-fluoro-2-methylphenyl)carbonyl]-4,4-dimethyl-2-(adamantan-2-yl)-1,2-diazetidin-3-one] | 0.42 | 0.47 | – |
| CC1(C)C(=O)N(C2C3CC4CC(C3)CC2C4)N1C(=O)c1cccc(Cl)c1 (centres unmarked) [Example 128, 1-[(3-chlorophenyl)carbonyl]-4,4-dimethyl-2-(adamantan-2-yl)-1,2-diazetidin-3-one] | 0.1 | 0.5 | – |
| CC1(C)C(=O)N(C2C3CC4CC(C3)CC2C4)N1C(=O)c1ccc2c(c1)OCO2 (centres unmarked) [Example 135, 1-(1,3-benzodioxol-5-ylcarbonyl)-4,4-dimethyl-2-(adamantan-2-yl)-1,2-diazetidin-3-one] | 0.11 | – | 0.76 |
| CC1(C)C(=O)N(C2C3CC4CC(C3)CC2C4)N1C(=O)c1ccccc1O (centres unmarked) [Example 138, 1-[(2-hydroxyphenyl)carbonyl]-4,4-dimethyl-2-(adamantan-2-yl)-1,2-diazetidin-3-one] | 0.24 | 0.22 | – |
| CC1(C)C(=O)N(C2C3CC4CC(C3)CC2C4)N1C(=O)c1ccc(N)cc1 (centres unmarked) [Example 139, 1-[(4-aminophenyl)carbonyl]-4,4-dimethyl-2-(adamantan-2-yl)-1,2-diazetidin-3-one] | 0.36 | 0.79 | – |
| CC1(C)C(=O)N(C2CCCCCCC2)N1C(=O)c1cccc(Cl)c1 [Example 150, 1-[(3-chlorophenyl)carbonyl]-2-cyclooctyl-4,4-dimethyl-1,2-diazetidin-3-one] | 0.43 | 0.84 | – |
| Cc1cccc(C(=O)N2N(C3CCCCCCC3)C(=O)C2(C)C)c1 [Example 151, 2-cyclooctyl-4,4-dimethyl-1-[(3-methylphenyl)carbonyl]-1,2-diazetidin-3-one] | 0.3 | 0.81 | – |
| Cc1ccccc1C(=O)N1N(C2CCCCCCC2)C(=O)C1(C)C [Example 152, 2-cyclooctyl-4,4-dimethyl-1-[(2-methylphenyl)carbonyl]-1,2-diazetidin-3-one] | 0.54 | 0.23 | – |
| CC1(C)C(=O)N(C2CCCCCCC2)N1C(=O)c1ccccc1N [Example 153, 1-[(2-aminophenyl)carbonyl]-2-cyclooctyl-4,4-dimethyl-1,2-diazetidin-3-one] | 0.032 | 0.14 | – |
| Cc1c(F)cccc1C(=O)N1N(C2C3CC4CC(C3)CC2C4)C(=O)C1(C)C (centres unmarked) [Example 157, 1-[(3-fluoro-2-methylphenyl)carbonyl]-4,4-dimethyl-2-(adamantan-2-yl)-1,2-diazetidin-3-one] | 0.15 | 0.44 | – |
| Cc1ccc(C(=O)N2N(C3C4CC5CC(C4)CC3C5)C(=O)C2(C)C)c(C)c1 (centres unmarked) [Example 160, 1-[(2,4-dimethylphenyl)carbonyl]-4,4-dimethyl-2-(adamantan-2-yl)-1,2-diazetidin-3-one] | 0.16 | 0.52 | – |
| CC1(C)C(=O)N(C2C3CC4CC(C3)CC2C4)N1c1ccc(N)cc1 (centres unmarked) [Example 183, 1-(4-aminophenyl)-4,4-dimethyl-2-(adamantan-2-yl)-1,2-diazetidin-3-one] | 0.76 | – | 0.057 |
| Cc1ccccc1N1N(C2C3CC4CC(C3)CC2C4)C(=O)C1(C)C (centres unmarked) [Example 192, 4,4-dimethyl-1-(2-methylphenyl)-2-(adamantan-2-yl)-1,2-diazetidin-3-one] | 0.03 | – | 0.49 |
| Cc1cccc(N2N(C3C4CC5CC(C4)CC3C5)C(=O)C2(C)C)c1 (centres unmarked) [Example 193, 4,4-dimethyl-1-(3-methylphenyl)-2-(adamantan-2-yl)-1,2-diazetidin-3-one] | 0.36 | – | 0.86 |
| COc1cccc(N2N(C3C4CC5CC(C4)CC3C5)C(=O)C2(C)C)c1 (centres unmarked) [Example 204, 1-(3-methoxyphenyl)-4,4-dimethyl-2-(adamantan-2-yl)-1,2-diazetidin-3-one] | 0.42 | 0.16 | – |
| COc1ccccc1N1N(C2C3CC4CC(C3)CC2C4)C(=O)C1(C)C (centres unmarked) [Example 205, 1-(2-methoxyphenyl)-4,4-dimethyl-2-(adamantan-2-yl)-1,2-diazetidin-3-one] | 0.2 | 0.1 | – |
| Cc1cccc(N2N(C3C4CC5CC(C4)CC3C5)C(=O)C2(C)C)c1C (centres unmarked) [Example 207, 1-(2,3-dimethylphenyl)-4,4-dimethyl-2-(adamantan-2-yl)-1,2-diazetidin-3-one] | 0.054 | – | 0.61 |
| CC1(C)C(=O)N(C2C3CC4CC(C3)CC2C4)N1c1csc2ccccc12 (centres unmarked) [Example 210, 1-(1-benzothiophen-3-yl)-4,4-dimethyl-2-(adamantan-2-yl)-1,2-diazetidin-3-one] | 0.16 | – | 0.44 |
| CC1(C)C(=O)N(C2C3CC4CC(C3)CC2C4)N1c1ccccc1O (centres unmarked) [Example 219, 1-(2-hydroxyphenyl)-4,4-dimethyl-2-(adamantan-2-yl)-1,2-diazetidin-3-one] | 0.23 | – | 0.56 |
| COc1ccccc1N1N(C2CCCCCCC2)C(=O)C1(C)C [Example 220, 2-cyclooctyl-1-(2-methoxyphenyl)-4,4-dimethyl-1,2-diazetidin-3-one] | 0.088 | 0.056 | – |
| CC1(C)C(=O)N(C2CC3CCC2C3)N1c1cccc(Cl)c1Cl (centres unmarked) [Example 224, 2-(bicyclo[2.2.1]heptan-2-yl)-1-(2,3-dichlorophenyl)-4,4-dimethyl-1,2-diazetidin-3-one] | 0.34 | 0.044 | – |
| CC1(C)C(=O)N(C2CC3CCC2C3)N1c1cccc2ccccc12 (centres unmarked) [Example 225, 2-(bicyclo[2.2.1]heptan-2-yl)-4,4-dimethyl-1-(naphthalen-1-yl)-1,2-diazetidin-3-one] | 0.012 | 0.036 | – |
| CC1(C)C(=O)N([C@H]2C3CC4CC2C[C@](O)(C4)C3)N1c1ccccc1O [Example 233, trans-1-(2-hydroxyphenyl)-2-(5-hydroxyadamantan-2-yl)-4,4-dimethyl-1,2-diazetidin-3-one] | 0.27 | – | 0.18 |
| CC1(C)C(=O)N([C@H]2C3CC4CC2C[C@](O)(C4)C3)N1c1ccc(N)cc1 [Example 235, trans-1-(4-aminophenyl)-2-(5-hydroxyadamantan-2-yl)-4,4-dimethyl-1,2-diazetidin-3-one] | 0.75 | – | 0.056 |
| CC1(C)C(=O)N([C@H]2C3CC4CC2C[C@](O)(C4)C3)N1c1cccc2ccccc12 [Example 236, trans-2-(5-hydroxyadamantan-2-yl)-4,4-dimethyl-1-(naphthalen-1-yl)-1,2-diazetidin-3-one] | 0.31 | 0.095 | – |
| CC1(C)C(=O)N([C@H]2C3CC4CC2C[C@](O)(C4)C3)N1c1ccc(F)c2ccccc12 [Example 238, trans-1-(4-fluoronaphthalen-1-yl)-2-(5-hydroxyadamantan-2-yl)-4,4-dimethyl-1,2-diazetidin-3-one] | 0.38 | 0.02 | – |
